Tests used:
Assay type in all cases: in vivo, human
[1] = system: treatment-naive, locally advanced or metastatic (stage IIIB-IVB) NSCLC; test: B-F1RST phase II trial (NCT02848651) interim analysis: safety (adverse events) of atezolizumab
Source text: (§1) The B-F1 RST (Clinical Trial ID No.: NCT02848651) patient population being evaluated for bTMB score consists of approximately 150 patients at 20 to 25 study sites (N=153). Patients are eligible for enrollment in the B-F1 RST study if they have treatment-naïve, locally advanced or metastatic (e.g., stage IIIB-IVB) NSCLC; measurable disease, as defined by RECIST v1.1; and an ECOG performance status of 0 or 1. Exclusion criteria include sensitizing EGFR mutations or ALK rearrangements; active brain metastases requiring treatment; leptomeningeal disease; other malignancies within 5 years of enrollment; HBV, HCV, or HIV infection; or history of autoimmune disorder. Participants are divided into cohorts based on bTMB score and receive atezolizumab at a dose of 1200 mg intravenously every three weeks. All patients undergo tumor assessment at baseline and every 6 weeks for the first 12 months following cycle 1, day 1, and then every 9 weeks therafter. Treatment with atezolizumab can be continued as long as participants were experiencing clinical benefit, i.e., in the absence of unacceptable toxicity or symptomatic deterioration attributed to disease progression. Tumor assessments continue until disease progression per RECIST v1.1 or loss of clinical benefit (investigator assessed), consent withdrawal, study discontinuation, study completion, or death. Mandatory blood samples are taken at baseline, during therapy, and at progression to evaluate changes in exploratory biomarkers. The interim analysis was prespecified to occur at 6 months after 50% of the patients have been enrolled, with a prespecified bTMB score of ≥16. The co-primary endpoints are the clinical efficacy of atezolizumab (as evaluated by investigator-assessed ORR per RECIST v1.1) and the relationship between bTMB and PFS benefit (as evaluated by investigator-assessed PFS per RECIST v1.1). The secondary objectives are safety and assessment of efficacy by investigator-assessed duration of response (DOR) and OS.
(§2) Of 78 treated patients in the interim analysis population (IAP) from the B-F1 RST study, 58 had adequate blood samples with sufficient detection of circulating tumor DNA (MSAF≥1%) and comprised the biomarker-evaluable population (BEP). One patient of the IAP was never treated and therefore not safety- or efficacy-evaluable. A bTMB score of 16 (prevalence, 19% [11/58]) was prespecified to evaluate clinical efficacy in the BEP (bTMB high, ≥16; bTMB low, <16). Statistical tests were 2-sided at a 0.1 level and 90% confidence interval.

[2] = system: treatment-naive, locally advanced or metastatic (stage IIIB-IVB) NSCLC; test: B-F1RST phase II trial (NCT02848651) interim analysis: efficacy of first-line atezolizumab by bTMB subgroup
Source text: as §1, §2

[3] = system: non-small cell lung cancer (NSCLC); test: Combined POPLAR and OAK studies: PFS by bTMB score; details: combined BEP of POPLAR and OAK (n=775), reference bTMB score of 14, atezolizumab vs docetaxel
Source text: FIG. 7A is a graph showing the Kaplan-Meier Curve of PFS of the combined BEP of patients (nBEP=775 patients; HR=0.62) in the atezolizumab treatment arm (black) and docetaxel control arm (gray) of the POPLAR and OAK studies, each arm stratified according to bTMB score. Patients with a bTMB score that is greater than, or equal to, a reference bTMB score of 14 are indicated by solid lines (Dx+) and patients with a bTMB that is lower than a reference bTMB score of 14 are indicated by dashed lines (Dx−). […] The time point for each column corresponds to the times shown along the x-axis of the above graph. Patient samples having an MSAF less than 1% were excluded from analysis. Sequence coverage was greater than, or equal to, 800. […]
Analysis of bTMB was performed retrospectively. Progression-free survival (PFS) was defined as the time between date of randomization and date of first documented disease progression as assessed by the investigator using RECIST v.1.1 or death from any cause, whichever occurred first. […]

[4] = bTMB cut-off score 12, BEP n = 58
[5] = bTMB cut-off score 14, BEP n = 58
[6] = bTMB cut-off score 16, BEP n = 58
[7] = bTMB cut-off score 20, BEP n = 58

Substance: atezolizumab
- Treatment-related Grade 5 AEs ([1]; Patients in IAP (n = 78)): ^bNo treatment-related Grade 5 AEs were reported.
- Grade 5 AEs, any cause ([1]; Patients in IAP (n = 78), reported as death, cardiac arrest, pulmonary embolism (n = 1 each)): 3 (3.8%) n (%)
- AE of special interest: Adrenal insufficiency ([1]; in vivo): 1 (1.3%) n (%)
- AEs leading to discontinuation, patients ([1]; in vivo): 15.4%
- AEs leading to treatment discontinuation ([1]; in vivo): 12 (15.4%) n (%)
- AEs, any cause ([1]; in vivo): 78 (100.0%) n (%)
- Grade 3-4 AEs, any cause ([1]; in vivo): 40 (51.3%) n (%)
- SAEs, any cause ([1]; in vivo): 35 (44.9%) n (%)
- Treatment-related AEs ([1]; in vivo): 59 (75.6%) n (%)
- Treatment-related Grade 3-4 AEs ([1]; in vivo): 15 (19.2%) n (%)
- Treatment-related SAEs ([1]; in vivo): 12 (15.4%) n (%)
- Treatment-related serious AEs, patients ([1]; in vivo): 14.1%
- tolerability ([1]; in vivo): well tolerated
- treatment-related grade 3/4 AEs, patients ([1]; in vivo): 16.7%
- disease control rate ([2]; B-F1RST interim analysis, BEP (n=58)): 25.9%
- ORR ([2]; B-F1RST interim analysis, BEP (n=58), RECIST v1.1): 12.1%
- PFS HR (90% CI) ([2]; B-F1RST interim analysis, bTMB high (≥16) vs low (<16)): 0.51
- median PFS ([2]; B-F1RST interim analysis, bTMB high (≥16), minimum follow-up of 6 months): 9.5 months
- ORR ([2]; B-F1RST interim analysis, bTMB high (≥16), n=11): 36.4%
- ORR odds ratio (90% CI) ([2]; B-F1RST interim analysis, bTMB high versus low groups): 8.38
- median PFS ([2]; B-F1RST interim analysis, bTMB low (<16), minimum follow-up of 6 months): 2.8 months
- ORR ([2]; B-F1RST interim analysis, bTMB low (<16), n=47): 6.4%
- ORR per RECIST v.1.1 ([2]; BEP (n = 58)): 12.1%
- PD per RECIST v.1.1 ([2]; BEP (n = 58)): 37.9%
- PR per RECIST v.1.1 ([2]; BEP (n = 58)): 12.1%
- ORR per RECIST v.1.1 ([2]; IAP (n = 78)): 15.4%
- PD per RECIST v.1.1 ([2]; IAP (n = 78)): 37.2%
- PR per RECIST v.1.1 ([2]; IAP (n = 78)): 15.4%
- PFS Median, bTMB High [2, 4]: 3.0 (22) months
- PFS Median, bTMB Low [2, 4]: 3.2 (36) months
- PFS Median, bTMB High [2, 5]: 3.4 (14) months
- PFS Median, bTMB Low [2, 5]: 3.2 (44) months
- PFS Median, bTMB High [2, 6]: 9.5 (11) months
- PFS Median, bTMB Low [2, 6]: 2.8 (47) months
- PFS Median, bTMB High [2, 7]: 9.5 (8) months
- PFS Median, bTMB Low [2, 7]: 2.7 (50) months
- ORR per RECIST v.1.1 ([2]; bTMB high (n = 11)): 36.4%
- PD per RECIST v.1.1 ([2]; bTMB high (n = 11)): 36.4%
- PR per RECIST v.1.1 ([2]; bTMB high (n = 11)): 36.4%
- PFS HR ([2]; bTMB high (≥16) vs bTMB low (<16), Table 20): 0.51
- median PFS ([2]; bTMB high (≥16), n = 11, BEP, first-line atezolizumab, minimum follow-up 6 months): 9.5 mo
- PFS HR ([2]; bTMB high vs low at cut-off score 12, BEP n = 58): 0.95
- PFS HR ([2]; bTMB high vs low at cut-off score 14, BEP n = 58): 0.73
- PFS HR ([2]; bTMB high vs low at cut-off score 16, BEP n = 58, Table 21): 0.49
- PFS HR ([2]; bTMB high vs low at cut-off score 20, BEP n = 58): 0.23
- median PFS ([2]; bTMB low (<16), n = 47, BEP, first-line atezolizumab, minimum follow-up 6 months): 2.8 mo
- ORR per RECIST v.1.1 ([2]; bTMB low (n = 47)): 6.4%
- PD per RECIST v.1.1 ([2]; bTMB low (n = 47)): 38.3%
- PR per RECIST v.1.1 ([2]; bTMB low (n = 47)): 6.4%
- PFS HR [3]: 0.62

Source: patent publication US11674962B2, “Therapeutic and diagnostic methods for cancer” (Genentech, Inc., priority 2017, dated 2023)
